Measured values reported in a melting point compilation (Tetko et al.; mined from patent text by program, amines drawn as free bases though some values may be those of a salt).

With `O=c1[nH]c(=O)n(CCCCN2CCC(OC(c3ccccc3)c3ccccc3)CC2)c2cc([N+](=O)[O-])ccc12` the melting point was 214 to 215 °C.
`Fc1cccc([C@@H]2COCC(=S)N2)c1` gave a melting point of 124 to 125 °C.
`COC(=O)c1cccc(C(NCC(=O)Nc2c(C(C)C)cccc2C(C)C)c2ccccc2)c1` (stereo not given) gave a melting point of 131 to 132 °C.
Compound `CC(C)CNC1=NS(=O)(=O)c2ccc(Cl)cc2N1` has a melting point of 298 to 301 °C.
For `Cc1c(C)c(N2CCN(c3ccc(C(F)(F)F)cc3)CC2)c(C)c2c1OC(C)(C)C2N1CCCC1` (stereo not given), the melting point was 140 to 141 °C.
`CC1=C(C)C(Cc2csc3ccccc23)N(C)C=C1` (stereo not given) showed a melting point of 185 to 190 °C.
Work on `CCC(COC(=O)c1ccc[nH]1)C1CN(C)C2Cc3cn(C)c4cccc(c34)C2(OC)C1` (stereo not given) yielded a melting point of 96 to 98 °C.
For `CN(C)CCC(c1ccccc1)c1ncc[nH]1` (stereo not given), the melting point was 135 to 136 °C.
Work on `CC(C)(C)OC(=O)NCC(=O)SCC(Cc1ccccc1)C(=O)Nc1cccc(C(=O)O)c1` (stereo not given) yielded a melting point of 76 to 80 °C.
In the case of `CCC(=NNC(=O)C1CC1C)c1cccnc1` (stereo not given), the melting point is reported as 137 °C.
With `COc1ccc2c(c1[N+](=O)[O-])C(=O)CC2` the melting point was 155 to 158 °C.
`COC(=O)Cc1nc(-c2ccc(OC)c(OC)c2)c2cc(Cl)ccc2n1` showed a melting point of 144 to 145 °C.
`CN(C)CCn1c(=O)sc2ccc(Cl)cc21` showed a melting point of 62.5 to 65.5 °C.
Work on `CCS(=O)(=O)Nc1cc(-n2cnc(C(F)(F)F)cc2=O)c(F)cc1C#N` yielded a melting point of 170 °C.
Compound `Cc1ccccc1C(Oc1cc(OCc2ccsc2)ccc1C#N)C(=O)O` (racemic) has a melting point of 146 to 148 °C.
In the case of `CCc1nn2c(N3CCN(C)CC3)cc(N3CCOCC3)nc2c1S(=O)(=O)c1ccccc1`, the melting point is reported as > 250 °C.
With `NCc1ccccc1C(F)(F)C(F)(F)c1ccc(F)cc1` the melting point was 64 to 66 °C.
For `Cc1c(C(=O)Nc2cccc(C#N)c2N2CCC(CN3CCOCC3)CC2)cnn1-c1ccc(Cl)cc1`, the melting point was 235 °C.
With `COc1ccc(N(Cc2cc(C(C)(C)C)c(O)c(C(C)(C)C)c2)S(=O)(=O)c2ccc(C)cc2)cn1` the melting point was 127 to 129 °C.
Work on `CCOC(=O)C1=C(C)NC(N=C(C)N(C)C)=C(C(=O)OCC)C1c1ccccc1Cl` (stereo not given) yielded a melting point of 181 °C.
`COc1ccc(C(=O)Cc2ccncc2Cl)cc1OC1CCCC1` showed a melting point of 124 to 125 °C.
Compound `CC(C)(C)c1ccc(C(=O)Nc2cn3c4c(ccc3n2)OCC4)cn1` has a melting point of 246 to 248 °C.
`CCOC(=O)c1cn(Nc2ccc(F)cc2F)c2nc(Cl)c(F)cc2c1=O` gave a melting point of 210 to 212 °C.
In the case of `COC(=O)c1cnc(N)c([N+](=O)[O-])c1`, the melting point is reported as 195 to 196 °C.
`NC1=NCC(COc2cccc(Cl)c2)O1` (stereo not given) gave a melting point of 128 °C.
With `CCc1nn(-c2cc([N+](=O)[O-])ccc2Br)c(=O)n1Cc1ccc(-c2ccccc2S(=O)(=O)NC(C)(C)C)cc1F` the melting point was 223 to 225 °C.
For `CN(C)CCc1c[nH]c2ccc(Br)cc12`, the melting point was 82 to 85 °C.
In the case of `Cc1cc(N2NCCNC2=O)cc(Cl)c1Cc1ccc(Cl)cc1`, the melting point is reported as 197 to 198 °C.
With `Cn1cc(C(=O)NCc2ccc(Cl)cc2)c(=O)c2cc(CN3CCOC[C@@H]3[C@H](O)c3ccccc3)sc21` the melting point was 129 to 134 °C.
For `O=C(CCCCNC(=O)c1cn2c3c(cccc13)CCC2)NOCc1ccccc1`, the melting point was 154 to 155 °C.
For `O=[N+]([O-])c1c(O)nc(N2CCSCC2)nc1O`, the melting point was 220 to 223 °C.
`COc1ccc(NS(=O)(=O)N2CCn3c(c(C(N)=O)c(Cl)c3-c3ccccc3)C2)cc1` showed a melting point of 152 to 154 °C.
Compound `Cc1cc2c(s1)c(=O)c(S(C)=O)cn2C` (stereo not given) has a melting point of 263 to 264 °C.
`O=C(c1c(F)cccc1F)N1COCN(c2ccc(S(=O)C(F)F)cc2F)C1=O` (stereo not given) showed a melting point of 138 to 140 °C.
`Cn1nccc1C(=O)c1cc(O)c(O)c(Cl)c1Cl` showed a melting point of 202 to 204 °C.
For `CC(C)(C)OC(=O)N(C(=O)OC(C)(C)C)c1sc(-c2cncc(F)c2)nc1F`, the melting point was 143 °C.
In the case of `Nc1nc(Cl)cnc1-c1cc(Cl)cc(Cl)c1Cl`, the melting point is reported as 211 to 214 °C.
`Fc1ccc(-c2cc(NCc3cccc(NCc4ccccc4)n3)n[nH]2)cc1` gave a melting point of 117 to 118 °C.
In the case of `Cc1nc(N2CCN(Cc3ccc(C(F)(F)F)cc3)C2=O)sc1-c1ccno1`, the melting point is reported as 153 to 154 °C.
`CCCCCCCCCCNC(=O)N(O)CCCC(=O)OCC` gave a melting point of 68 to 69 °C.
`Cc1c(-c2ccc3c(c2)OCO3)[nH]c2ccc(OCc3ccccc3)cc12` showed a melting point of 142 to 145 °C.
Compound `CCOC(=O)Nc1ncc(-c2nc3ccccc3c(=O)n2-c2ccc(OC)cc2)s1` has a melting point of 222 to 224 °C.
Work on `CCOc1ccc(C=C(CSC(C)=O)C(=O)NCCC(=O)OCc2ccccc2)cc1` yielded a melting point of 92 °C.
In the case of `CCC1(CC)c2cc(I)ccc2-c2ccc(-c3nc4ccccc4s3)cc21`, the melting point is reported as 158 to 160 °C.
Work on `CC(=O)CC1(C(=O)c2ccc([N+](=O)[O-])cc2)C=CC(Cl)=C(Cl)C1` (stereo not given) yielded a melting point of 121 to 122 °C.
Work on `CC(=O)C(=Cc1ccc(S(C)(=O)=O)c(F)c1)C(C)=O` yielded a melting point of 140 to 143 °C.
With `CS(=O)(=O)Nc1ccc(OCC2CCN(C(=O)OCc3ccccc3)CC2)cc1` the melting point was 150 to 151 °C.
For `Cc1nnc(C(=O)CCCCCCOc2ccc(OCc3ccccc3)cc2)o1`, the melting point was 118 to 120 °C.
Compound `CCCCCCCCCCCCCCCCCCNC(=O)OCC(CNS(=O)(=O)CCCI)NC(=O)OCCCC` (stereo not given) has a melting point of 96 to 98 °C.
With `CN(C(=O)c1ccc(CS(=O)(=O)Cn2cnc3ccccc32)cc1)C1CCCCC1` the melting point was 142 to 143 °C.
`CC(=O)Nc1c(OC(C)=O)cc(C)c(C)c1[N+](=O)[O-]` gave a melting point of 209 to 211 °C.
With `O=C(c1ccccc1)N1CC=C(c2c[nH]c3ccc([N+](=O)[O-])cc23)CC1` the melting point was 280 to 282 °C.
Compound `c1csc(-c2nc(COc3ccc(CCCn4ccnc4)cc3)cs2)c1` has a melting point of 76 to 77 °C.
Work on `COc1ccc2c(c1)CCc1c(cccc1C(=O)O)S2` yielded a melting point of 185 to 187 °C.
For `C=C(C)Cc1cccc(C(=O)O)c1S`, the melting point was 89 to 92 °C.
Work on `CC(C)c1cc2ncsc2cc1SC1=C(O)CC(CCc2ccc(F)cc2)(C(C)C)OC1=O` (stereo not given) yielded a melting point of 104 to 105 °C.
In the case of `CN1CCC(c2c(O)cc(O)c3c(=O)cc(Sc4ccccc4)oc23)C(O)C1` (stereo not given), the melting point is reported as 82 °C.
Compound `CNS(=O)(=O)CC(=O)c1cc(OC)ccc1N` has a melting point of 117 to 118 °C.
`COc1c(C=O)c2cc(Cl)c(Cl)cc2n1C1OC(CO)C(O)C1O` (stereo not given) gave a melting point of 198 to 199 °C.
Compound `CCCc1c(OCCCSc2ccc(C(=O)CCC(=O)O)cc2)ccc(C(C)=O)c1OC(C)=O` has a melting point of 121 to 123 °C.
Compound `CCN(CC)Cc1cc(C(N)=O)ccc1N` has a melting point of 129 to 131 °C.
`CC(=O)Nc1ncc(C#Cc2cnn3c(C(F)(F)F)cc(-c4ccc(C(F)(F)F)cc4)nc23)cn1` gave a melting point of 293 °C.
With `CC(C)C(C(=O)O)c1ccc(O)c([N+](=O)[O-])c1` (stereo not given) the melting point was 103 to 105 °C.
For `O=C1CCN(C(=O)c2ccc(Cl)cc2Cl)c2cc(Cl)ccc21`, the melting point was 159 to 163 °C.
With `O=C1c2c(O)ccc(O)c2C(=O)c2c(NCCN3CCOCC3)ccc(NCCN3CCOCC3)c21` the melting point was 241 to 243 °C.
`O=[N+]([O-])c1ccc(Oc2ccc(C(F)(F)F)cc2Cl)nc1Cl` gave a melting point of 53 to 59 °C.
With `N#CCC(C#N)NNc1ccccc1` (stereo not given) the melting point was 97 to 98 °C.
With `CCCCCOc1ccc(-c2ccc(-c3ccccc3CC)cc2)cc1` the melting point was 62 to 65 °C.
Work on `CC(=O)OC1CC2=CCC3C4CCC(C(C)CS(=O)(=O)c5ccccc5)C4(C)CCC3C2(C)C(OC(C)=O)C1` (stereo not given) yielded a melting point of 104 °C.
Work on `COc1ccc(C(CC(=O)O)c2ccc(OC)cc2)cc1` yielded a melting point of 132 to 134 °C.
